Test results: patent US20160243142A1, “AVICIN D FOR TREATMENT OF MANTLE CELL LYMPHOMA” (Research Development Foundation, priority 2015, published 2016)
“Also recorded” adds a separate entry of the source.

How the values were obtained:
[1] = Toxicity / body weight in Mino xenograft bearing NODscid mice; assay type: in vivo; conditions: for tolerability of dosing protocols: 0.5, 1.0 and 1.0-2.0 mg/kg s.c. daily; for animals removed from the study due to drug toxicity / treatment related deaths (TR): Group 5: escalating 1.0-2.0 mg/kg s.c., N = 10
Protocol: (§1) Animals were treated according to Table 3 below. Animals were dosed in the opposite flank opposing the tumors at 10 mL/kg. Daily clinical observations were made and body weights and tumor measurements were performed thrice weekly. Animals were maintained on study until their tumor burden reached the study endpoint of 2000 mm^3. Animals were euthanized at the study endpoint with terminal cardiocentesis performed for serum collection and plasma preparation in K2EDTA. Tumors were excised and fixed in 10% formalin.
Non-treatment related deaths (NTR), non-treatment metastatic related deaths (NTRm), and treatment related deaths (TR) were monitored. Animal body weight was monitored three times weekly throughout the study and mean % body weight loss was calculated and plotted with GraphPad Prism 5.0. Animals displaying >20% body weight loss were to be euthanized and recorded as TRs.

[2] = system: Mino mantle cell lymphoma xenograft; assay: Tumor growth delay in Mino mantle cell lymphoma xenograft bearing NODscid mice; assay type: in vivo; conditions: for PR (partial response): N = 10; for Log10 cell kill (750 mm^3): activity threshold 0.7
Description: 80 NOD .CB17 -Prkdcscid/J (NOD scid) (JAX, West Sacramento, Calif.) 4-6 week old female mice were transferred to the in vivo research laboratory in West Sacramento, CA. The mice were ear notched for identification and housed in individually and positively ventilated polycarbonate cages with HEPA filtered air at a density of five mice per cage. Bed-o'cobs® bedding was used and cages were changed every two weeks. The animal room was illuminated entirely with artificial fluorescent lighting, with a controlled 12 h light/dark cycle (7 am to 7 pm light). The normal temperature and relative humidity ranges in the animal rooms were 22±4° C. and 50±15%, respectively. The animal rooms were set to have 15 air exchanges per hour. Filtered tap water, acidified to a pH of 2.8 to 3.1, and LabDiet 5LL4 were provided ad libitum.
Mino Mantle Cell Lymphoma cells (ATCC catalogue #CRL-3000™, Manassas, Va.) were maintained in RPMI 1640 with 2 mM 1-glutamine, 25 mM HEPES, 4.5 g/L D-glucose (Invitrogen, San Diego, Calif.) supplemented with 10% ES cell certified fetal bovine serum (Hyclone, Logan, Utah). The cells were suspended at 1×10^8 cells/ml in serum free media, and 80 mice were subcutaneously injected in the rear right flanks with 10^7 cells in 100 μL. Tumor volumes were monitored with ULTRA-Cal IV digital calipers (Fowler, Newton, Mass.), and 50 animals were tumor size rank matched into five cohorts of 10 animals with mean tumor volumes of approximately 150 mm^3.
as §1
Animals were euthanized when the tumors had reached the 2000 mm^3 study endpoint, and the tumors were harvested, weighed, and placed in 10% formalin. Table 4 summarizes the clinical observation schedule and the body weight and tumor measurement schedule performed.
Tumor volumes were calculated from digital caliper raw data by using the formula: […]
The value w (width) was the smaller of two perpendicular tumor axes and the value l (length) was the larger of two perpendicular axes.
The tumor growth delay (TGD) method was used to analyze drug treatment effects on time (days) to tumor endpoint (TTE) for Mino tumor response. The tumor endpoint volume for TTE analysis was set at 2000 mm^3 and TTE was defined in days by the formula: […]
The value for b was the (y) intercept and m was the slope of the line calculated from a linear regression of log-transformed tumor growth data for each tumor calculated from a minimum of three time points preceding 2000 mm^3 and a minimum of one that surpassed the time point for 2000 mm^3. Treatment initiated when tumors reached approximately 150 mm^3, and animals were drugged according to Table 3. Tumors were monitored until animals were euthanized due to tumors reaching a 2000 mm^3 endpoint, and the study was concluded on day 59 post drug treatment initiation.
Treatment efficacy was determined by comparing TTE values calculated for each treatment group and by calculating percent tumor growth delay for each treatment group:
T represented the median TTE in days for a drug treatment group and C represented the median TTE in days for the control group. Statistical significance for median TTE values for treatment group comparisons was determined by the Log-rank test with GraphPad Prism 5.0 software (GraphPad, La Jolla, Calif.). A 95% confidence value was used for two-tailed statistical analyses. Log-rank survival curves were plotted based on survival to 2000 mm3 to visualize the statistical significance of the median TTE values between treatment groups. […]

[3] = approved dose; alternative treatment 1.9 months; cited from earlier work
[4] = 3.3 mg/kg i.v. days 1 and 8 (Group 2)
[5] = Group 1 vs. Group 3: vehicle control vs. 0.5 mg/kg s.c.
[6] = Group 1 vs. Group 4: vehicle control vs. 1.0 mg/kg s.c.
[7] = Group 1 vs. Group 5: vehicle control vs. 1.0-2.0 mg/kg s.c.
[8] = Group 3: 0.5 mg/kg s.c. daily days 1-33
[9] = Group 3 vs. Group 4: 0.5 mg/kg vs. 1.0 mg/kg s.c.
[10] = Group 3 vs. Group 5: 0.5 mg/kg vs. 1.0-2.0 mg/kg s.c.
[11] = Group 4: 1.0 mg/kg s.c. daily days 1-2, 5-33
[12] = Group 4 vs. Group 5: 1.0 mg/kg vs. 1.0-2.0 mg/kg s.c.
[13] = Group 5: escalating 1.0-2.0 mg/kg s.c. daily days 1-2, 5-33

COc1cccc2c1C(=O)c1c(O)c3c(c(O)c1C2=O)C[C@@](O)(C(=O)CO)C[C@@H]3O[C@H]1C[C@H](N)[C@H](O)[C@H](C)O1 [Adriamycin, doxorubicin, reference compound]
day by which animals were removed from study [1, 4]: ≤ 16 days | toxicity of positive control [1, 4]: significant body weight loss; also recorded: severe toxicity | toxicity of positive control ([1]; 3.3 mg/kg i.v. days 1 and 8 (Group 2), listed as adriamycin): significant treatment-related body weight loss

C=CC(C)(O)CC/C=C(\CO)C(=O)O[C@@H]1C(C)O[C@@H](O[C@](C)(C=C)CC/C=C(\CO)C(=O)O[C@H]2C[C@@]3(C(=O)O[C@@H]4OC(CO)[C@@H](O)C(O)C4O[C@@H]4OC(C)[C@H](O[C@@H]5O[C@@H](CO)C(O)[C@@H]5O)C(O[C@@H]5OC(CO)[C@@H](O)C(O)C5O)C4O)C(CC2(C)C)C2=CCC4[C@@]5(C)CC[C@H](O[C@@H]6OC(CO[C@@H]7OC(C)[C@H](O)C(O)C7O[C@@H]7OC[C@@H](O)C(O)C7O)[C@@H](O)C(O)C6NC(C)=O)C(C)(C)C5CC[C@@]4(C)[C@]2(C)C[C@H]3O)C(O)C1O (some centres unmarked) [AVD-001]
Hazard Ratio [2, 5]: 3.159 | Median survival Ratio (control/treated) [2, 5]: 0.7412 | Hazard Ratio [2, 6]: 3.492 | Median survival Ratio (control/treated) [2, 6]: 0.6941 | Hazard Ratio [2, 7]: 10.36 | Median survival Ratio (control/treated) [2, 7]: 0.5675 | Median Survival (to 2000 mm^3) ([2]; Group 3: 0.5 mg/kg s.c.): 29.2 days | % TGD (tumor growth delay) [2, 8]: 34.9% | Median TTE (time to tumor endpoint, 2000 mm^3) [2, 8]: 29.2 days | PR (partial response) ([2]; Group 3: 0.5 mg/kg s.c.): 3 | Log10 cell kill (750 mm^3) ([2]; Group 3: 0.5 mg/kg s.c.): 0.57 | Hazard Ratio [2, 9]: 1.588 | Median survival Ratio [2, 9]: 0.9365 | Hazard Ratio [2, 10]: 5.491 | Median survival Ratio [2, 10]: 0.7657 | Median Survival (to 2000 mm^3) ([2]; Group 4: 1.0 mg/kg s.c.): 31.18 days | % TGD (tumor growth delay) [2, 11]: 44.1% | Median TTE (time to tumor endpoint, 2000 mm^3) [2, 11]: 31.2 days | PR (partial response) ([2]; Group 4: 1.0 mg/kg s.c.): 4 | Log10 cell kill (750 mm^3) ([2]; Group 4: 1.0 mg/kg s.c.): 0.45 | Hazard Ratio [2, 12]: 1.674 | Median survival Ratio [2, 12]: 0.8177 | Median Survival (to 2000 mm^3) ([2]; Group 5: 1.0-2.0 mg/kg s.c.): 38.14 days | PR (partial response) ([2]; Group 5: 1.0 to 2.0 mg/kg s.c.): 6 | Log10 cell kill (750 mm^3) ([2]; Group 5: 1.0 to 2.0 mg/kg s.c.): 0.89 | % TGD (tumor growth delay) [2, 13]: 76.2% | Median TTE (time to tumor endpoint, 2000 mm^3) [2, 13]: 38.1 days | nadir mean % body weight change ([1]; 0.5 mg/kg dose cohort, day 2): −4.43% | nadir mean % body weight change ([1]; 1.0 mg/kg dose cohort, day 3): −11.82% | tolerability of dosing protocols [1]: generally well-tolerated | tolerability of dosing protocols ([1]; listed as Avicin): generally well tolerated | body weight loss ([1]; Group 3 (0.5 mg/kg s.c.), peaked at day 2): 4% | animals removed from the study due to drug toxicity / treatment related deaths (TR) [1]: Two | animals removed from the study due to drug toxicity / treatment related deaths (TR) ([1]; listed as Avicin): two and Two | transient body weight loss ([1]; Groups 4 and 5 (1.0 and 1.0-2.0 mg/kg s.c.), dosing suspended days 3 and 4): 10% | nadir average % body weight change ([1]; escalating dose 1.0-2.0 cohort, day 3): −10.42% | injection site findings ([1]; several Group 3, 4 and 5 mice, s.c.): irritation and/or bleeding at the injection site

CO[C@H]1C[C@@H]2CC[C@@H](C)[C@@](O)(O2)C(=O)C(=O)N2CCCC[C@H]2C(=O)O[C@H]([C@H](C)C[C@@H]2CC[C@@H](OC(=O)C(C)(CO)CO)[C@H](OC)C2)CC(=O)[C@H](C)/C=C(\C)[C@@H](O)[C@@H](OC)C(=O)[C@H](C)C[C@H](C)/C=C/C=C/C=C/1C [Torisel, temsirolimus]
average time lived without disease getting worse [3]: 4.8 months
